Assay results published in publication PMC10300260 (The Journal of Biological Chemistry, 2023).

Tests used:
[1] = biological target: T1, TcK2 (T. cruzi eIF2α kinase 2, PERK homologue); assay: LANCE TR-FRET kinase assay with p70S6K peptide; DSF ΔTm […] °C; knockout parasites less sensitive; assay type: biochemical, Trypanosoma cruzi
T1 construct: gene TcYC6_0089220; kinase domain KD5 (S659-I976)

[2] = biological target: T1, TcK2 (T. cruzi eIF2α kinase 2, PERK homologue); assay: LANCE TR-FRET kinase assay with p70S6K peptide; DSF ΔTm […] °C; assay type: biochemical, Trypanosoma cruzi

SMILES | IC50 [1] [nM] | IC50 [2] [nM]
Cc1nc(Nc2ncc(C(=O)Nc3c(C)cccc3Cl)s2)cc(N2CCN(CCO)CC2)n1 [Dasatinib] | 190 ± 20 | 
Cn1cc(-c2[nH]c3cc(NC(=O)[C@H](N)C4CCCCC4)cc4c3c2C=NNC4=O)cn1 [PF-477736] |  | 670 ± 20
